Reference: patent publication US20220306630A1, “AGONISTS OF ROR GAMMAt” (BRISTOL-MYERS SQUIBB COMPANY, priority 2019, published 2022)

molecular target: T1, RORgT (Homo sapiens, UniProt P51449); experiment: RORgT Gal4 Luciferase Reporter Gene Assay; type: cell-based; conditions: engineered Jurkat cells overexpressing RORgT (LBD or full length) with Gal4 Luc reporter; 18 hours at 37° C.; 40 μM to 0.67 nM; read-out: RORg_GAL4 EC50
T1 construct: Gal4 (fusion partner); expressed in transfected cells; host or cells: engineered Jurkat cells (Jurkat pEx/Gal/hRORγ CLBD/HYG pG5luc/blast)
T1 sequence (P51449 267-516): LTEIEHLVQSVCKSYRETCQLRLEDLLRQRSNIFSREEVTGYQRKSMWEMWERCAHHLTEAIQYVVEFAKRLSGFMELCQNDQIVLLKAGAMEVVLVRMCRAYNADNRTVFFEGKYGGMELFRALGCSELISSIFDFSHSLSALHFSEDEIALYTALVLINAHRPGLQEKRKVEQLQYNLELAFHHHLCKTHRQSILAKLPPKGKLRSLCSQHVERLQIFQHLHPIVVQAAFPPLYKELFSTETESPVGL
Procedure, shortened: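 Cells exposed to compound 18 hours at 37° C, then lysed for luciferase luminescence. Inhibition of constitutive activity expressed as percent reduction of signal window relative to a control compound.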

In order of falling EC50:
1. COc1ccc(Oc2c(Cl)cc(NC(=O)CCc3ccccc3)cc2Cl)cc1C(C)C [Example 284]  40000 nM
2. COc1ccc(Oc2c(Cl)cc(C(=O)NCc3cnc(C)cn3)cc2Cl)cc1C(C)C [Example 155]  4750 nM
3. COc1ccc(Oc2c(Cl)ccc(C(=O)Nc3cccnc3)c2Cl)cc1C(C)C [Example 202]  4490 nM
4. COc1ccc(Oc2c(Cl)cc3[nH]c(-c4ccccc4)nc3c2Cl)cc1C(C)C [Example 35, 4,6-dichloro-5-(3-isopropyl-4-methoxyphenoxy)-2-phenyl-1H-benzo[d]imidazole]  2050 nM
5. COc1ccc(Oc2c(Cl)cc(N)cc2Cl)cc1C(C)C [Example 350]  2050 nM
6. COc1ccc(Oc2c(Cl)cc(NC(=O)c3c[nH]c4ncccc34)cc2Cl)cc1C(C)C [Example 349]  1370 nM
7. COc1ccc(Oc2c(Cl)ccc(C(=O)NCc3cccc(Cl)c3)c2Cl)cc1C(C)C [Example 198]  872 nM
8. COc1ccc(Oc2c(Cl)ccc(C(=O)NC3CCC(O)CC3)c2Cl)cc1C(C)C (stereo not drawn) [Example 197]  860 nM
9. COc1ccc(Oc2c(Cl)ccc(C(=O)NCC3CCOCC3)c2Cl)cc1C(C)C [Example 216]  813 nM
10. COc1ccc(Oc2c(Cl)cc(NC(=O)CCCN3CCOCC3)cc2Cl)cc1C(C)C [Example 298]  727 nM
11. COc1ccc(Oc2c(Cl)cc(NC(=O)NCCS(N)(=O)=O)cc2Cl)cc1C(C)C [Example 234]  635 nM
12. COc1ccc(Oc2c(Cl)cc(NC(=O)Cc3cncc(C(N)=O)c3)cc2Cl)cc1C(C)C [Example 6, 5-(2-((3,5-dichloro-4-(3-isopropyl-4-methoxyphenoxy)phenyl)amino)-2-oxoethyl)nicotinamide]  533 nM
13. COc1ccc(Oc2c(Cl)cc(NC(=O)CCC(C)C)cc2Cl)cc1C(C)C [Example 290]  524 nM
14. COc1ccc(Oc2c(Cl)cc(NC(=O)Cc3cnc[nH]3)cc2Cl)cc1C(C)C [Example 250]  500 nM
15. COc1ccc(Oc2c(Cl)cc(NC(=O)CC3CCN(S(N)(=O)=O)CC3)cc2Cl)cc1C(C)C [Example 46, N-(3,5-dichloro-4-(3-isopropyl-4-methoxyphenoxy)phenyl)-2-(1-sulfamoylpiperidin-4-yl)acetamide]  438 nM
16. COc1ccc(Oc2c(Cl)cc(NC(=O)Cc3cccc(C(N)=O)c3)cc2Cl)cc1C(C)C [Example 5, 3-(2-((3,5-dichloro-4-(3-isopropyl-4-methoxyphenoxy)phenyl)amino)-2-oxoethyl)benzamide]  437 nM
17. COc1ccc(Oc2c(Cl)ccc(C(=O)N3CCN(c4ccccc4)CC3)c2Cl)cc1C(C)C [Example 214]  434 nM
18. COc1ccc(Oc2c(Cl)cc(NC(=O)CN3CCC[C@@H](NS(=O)(=O)C4CC4)C3)cc2Cl)cc1C(C)C [Example 166]  424 nM
19. COc1ccc(Oc2c(Cl)cc3[nH]c(Cc4cccnc4)nc3c2Cl)cc1C(C)C [Example 309]  409 nM
20. COc1ncc(Oc2c(Cl)cc(NC(=O)CN3CC(NS(C)(=O)=O)C3)cc2Cl)cc1C(C)C [Example 267]  373 nM
21. CC(C)c1cc(Oc2c(Cl)cc(NC(=O)Cc3cccnc3)cc2Cl)ccc1OC(F)(F)F [Example 259]  356 nM
22. COCCN(C)C(=O)c1ccc(Cl)c(Oc2ccc(OC)c(C(C)C)c2)c1Cl [Example 182]  355 nM
23. CC(C)c1cc(F)cc(Oc2c(Cl)ccc(C(=O)NCC3CCN(S(=O)(=O)C(C)C)CC3)c2Cl)c1 [Example 116]  350 nM
24. COC(=O)CCC(=O)Nc1cc(Cl)c(Oc2ccc(OC)c(C(C)C)c2)c(Cl)c1 [Example 295]  308 nM
25. COc1ccc(Oc2c(Cl)cc(NC(=O)CN3CC(NS(=O)(=O)C4CC4)C3)cc2Cl)cc1C(C)C [Example 174]  286 nM
26. COc1ccc(Oc2c(Cl)cc(NC(=O)CC3CCCN(S(C)(=O)=O)C3)cc2Cl)cc1C(C)C (single isomer, unassigned) [Example 43, N-(3,5-dichloro-4-(3-isopropyl-4-methoxyphenoxy)phenyl)-2-(1-(methylsulfonyl)piperidin-3-yl)acetamide]  246 nM
27. CCS(=O)(=O)NC1CN(CC(=O)Nc2cc(Cl)c(Oc3ccc(OC)c(C(C)C)c3)c(Cl)c2)C1 [Example 162]  220 nM
28. CC(C)c1cc(Oc2c(Cl)cc(NC(=O)Cc3cccnc3)cc2Cl)ccc1C1CC1 [Example 324]  214 nM
29. COc1ccc(Oc2c(Cl)ccc(C(=O)N3CCN(C)CC3)c2Cl)cc1C(C)C [Example 196]  200 nM
30. COc1ccc(Oc2c(Cl)cc(NC(=O)CC3CCN(S(=O)(=O)C4CC4)CC3)cc2Cl)cc1C(C)C [Example 320]  177 nM
31. COc1ccc(Oc2c(Cl)cc(NC(=O)Cc3cncc(Cl)n3)cc2Cl)cc1C(C)C [Example 239]  170 nM
32. COc1ccc(Oc2c(Cl)ccc(C(=O)NCC3CCN(S(=O)(=O)C(C)C)CC3)c2Cl)cc1C(C)C [Example 93]  167 nM
33. COc1ccc(Oc2c(Cl)cc(NC(=O)Cc3cnn(S(C)(=O)=O)c3)cc2Cl)cc1C(C)(C)C [Example 256]  153 nM
34. COc1ccc(Oc2c(Cl)ccc(C(=O)NCc3ccc(S(=O)(=O)N(C)C)nc3)c2Cl)cc1C(C)C [Example 99]  153 nM
35. COc1ccc(Oc2c(Cl)cc(NC(=O)Cc3ccc(N)nc3)cc2Cl)cc1C(C)C [Example 2, 2-(6-aminopyridin-3-yl)-N-(3,5-dichloro-4-(3-isopropyl-4-methoxyphenoxy)phenyl)acetamide]  152 nM
36. COc1ccc(Oc2c(Cl)cc(NC(=O)C[C@H]3CCCN(S(=O)(=O)C(C)C)C3)cc2Cl)cc1C(C)C [Example 321]  149 nM
37. COc1ccc(Oc2c(Cl)cc(NC(=O)Cc3cccnc3Cl)cc2Cl)cc1C(C)C [Example 345]  124 nM
38. COc1ccc(Oc2c(Cl)ccc(C(=O)NCc3ccc(=O)[nH]c3)c2Cl)cc1C(C)C [Example 227, 2,4-dichloro-3-[4-methoxy-3-(propan-2-yl)phenoxy]-N-[(6-oxo-1,6-dihydropyridin-3-yl)methyl]benzamide]  109 nM
39. COc1ccc(Oc2c(Cl)ccc(C(=O)NCc3cnc(C)cn3)c2Cl)cc1C(C)C [Example 206]  100 nM
40. CCS(=O)(=O)N1CCC[C@H](CC(=O)Nc2cc(Cl)c(Oc3ccc(OC)c(C(C)C)c3)c(Cl)c2)C1 [Example 323]  92 nM
41. COc1ccc(Oc2c(Cl)ccc(CNC(=O)CN3CCN(S(C)(=O)=O)CC3)c2Cl)cc1C(C)C [Example 186]  90 nM
42. COc1ccc(Oc2c(Cl)ccc(C(=O)N3CCC(c4ccccc4)CC3)c2Cl)cc1C(C)C [Example 176]  83 nM
43. COc1ccc(Oc2c(Cl)ccc(C(=O)N3CCN(S(C)(=O)=O)CC3)c2Cl)cc1C(C)C [Example 65]  69 nM
44. COc1ncc(Oc2c(Cl)ccc(C(=O)N3CCC4(CC3)CN(S(C)(=O)=O)C4)c2Cl)cc1C(C)C [Example 118]  61 nM
45. COc1ccc(Oc2c(Cl)cc(NC(=O)Cc3cccc(S(N)(=O)=O)c3)cc2Cl)cc1C(C)C [Example 244]  37 nM
46. COc1ncc(Oc2c(Cl)cc(NC(=O)CC3CCN(S(=O)(=O)CCl)CC3)cc2Cl)cc1C(C)C [Example 127]  35 nM
47. CC(C)c1cc(F)cc(Oc2c(Cl)ccc(NC(=O)Cc3ccc(S(C)(=O)=O)cc3)c2Cl)c1 [Example 75]  33 nM
48. COc1ccc(Oc2c(Cl)ccc(C(=O)NC(C)c3ccc(S(C)(=O)=O)cc3)c2Cl)cc1C(C)C (stereo not drawn) [Example 105]  30 nM
49. CCS(=O)(=O)N1CCN(CC(=O)NCc2ccc(Cl)c(Oc3ccc(OC)c(C(C)C)c3)c2Cl)CC1 [Example 185]  28 nM
50. CCS(=O)(=O)N1CCC(CNC(=O)c2ccc(Cl)c(Oc3ccc(OC)c(C(C)C)c3)c2Cl)CC1 [Example 94]  26 nM
51. CCS(=O)(=O)N1CCC(CNC(=O)c2ccc(Cl)c(Oc3cc(F)cc(C(C)C)c3)c2Cl)CC1 [Example 115]  25 nM
52. COc1ccc(Oc2c(Cl)ccc(CNC(=O)C3CCN(S(=O)(=O)C(C)C)CC3)c2Cl)cc1C(C)C [Example 95]  24 nM
53. COc1ccc(Oc2c(Cl)ccc(C(=O)NCc3ccc(S(C)(=O)=O)cc3)c2Cl)cc1C(C)C [Example 79]  18 nM
54. CC(C)c1cc(F)cc(Oc2c(Cl)ccc(CNC(=O)c3ccc(S(C)(=O)=O)cc3)c2Cl)c1 [Example 149]  15 nM
55. CC(C)c1cc(F)cc(Oc2c(Cl)ccc(C(=O)NC(C)c3ccc(S(C)(=O)=O)cc3)c2Cl)c1 (stereo not drawn) [Example 136]  13 nM
56. COc1ncc(Oc2c(Cl)ccc(C(=O)NC(C)c3ccc(S(C)(=O)=O)cc3)c2Cl)cc1C(C)C (stereo not drawn) [Example 135]  11 nM
57. COc1ncc(Oc2c(Cl)ccc(CNC(=O)c3ccc(S(C)(=O)=O)cc3)c2Cl)cc1C(C)C [Example 145]  8.5 nM
58. CC(C)c1cc(F)cc(Oc2c(Cl)ccc(CNC(=O)c3ccc(S(N)(=O)=O)cc3)c2Cl)c1 [Example 150]  8.2 nM
59. CC(C)(F)c1cc(F)cc(Oc2c(Cl)cc(NC(=O)CC3CCN(S(C)(=O)=O)CC3)cc2Cl)c1 [Example 333]  8.1 nM
60. CC(C)c1cc(F)cc(Oc2c(Cl)ccc(C(=O)NCc3ccc(S(N)(=O)=O)cc3)c2Cl)c1 [Example 16, 2,4-dichloro-3-(3-fluoro-5-isopropylphenoxy)-N-(4-sulfamoylbenzyl)benzamide]  6.1 nM
61. CC1(c2cc(F)cc(Oc3c(Cl)cc(NC(=O)Cc4ccc(S(C)(=O)=O)cc4)cc3Cl)c2)CC1 [Example 274]  3.9 nM
62. CC(C)c1cc(F)cc(Oc2c(Cl)ccc(C(=O)NCc3ccc(S(C)(=O)=O)cc3)c2Cl)c1 [Example 122]  3.6 nM
63. CC1(c2cc(F)cc(Oc3c(Cl)cc(NC(=O)Cc4cccc(S(C)(=O)=O)c4)cc3Cl)c2)CC1 [Example 273]  1.1 nM
